Reference: ChEMBL document CHEMBL1131904, “Peptidic immunosuppressants from the fungus Trichoderma polysporum” (Bioorg Med Chem Lett, 1999)
Numbered stars: 1 amine (or outer) side, 2 acyl side, 3 side chain; on linkers, the order of the positions; unused ones are H or OH. Square brackets hold non-standard residues; d marks the D form. Peptide text beside a SMILES is read from it. * marks the point of attachment. ξ: configuration not given here. X1 = CCC(=O)C[C@@H](O)C[C@@H](C)C[C@H](N[*:1])C(=O)[*:2]; Alaψ(CH2NMeCH2CH2OH) = C[C@@H](CN(C)CCO)N*; Decanoyl(2R-Me) = CCCCCCCC[C@@H](C)C(=O)*; X2 = CCCCCCC[C@H](O)[C@H](C)C(=O)*; Aib = CC(C)(N)C(=O)O; ξA = CC(N)C(=O)O

How the values were obtained:
Mus musculus [1] = organism: Mus musculus; assay: Inhibitory activity against the proliferation of lymphocytes in mouse allogenic mixed lymphocyte reaction (MLR).; type: functional, organism-based
Mus musculus [2] = organism: Mus musculus; assay: Inhibitory activity against the production of interleukin 4 (IL-4); type: functional, organism-based

IC50 (Mus musculus [2]) [nM]	Compound	IC50 (Mus musculus [1]) [nM]
> 1000	CCCCCCCC[C@@H](C)C(=O)N1CCC[C@H]1C(=O)N[C@@H](C[C@H](C)C[C@H](O)CC(=O)CC)C(=O)N[C@@H](C)C(=O)NC(C)(C)C(=O)NC(C)(C)C(=O)N[C@H](C(=O)N[C@@H](C)C(=O)NC(C)(C)C(=O)NC(C)C(=O)N[C@@H](C)CN(C)CCO)[C@@H](C)CC (stereo partly drawn) ({Decanoyl(2R-Me)}-P[X1]A[Aib][Aib]IA[Aib][ξA]-{Alaψ(CH2NMeCH2CH2OH)})	20.5
> 1000	CCCCCCC[C@H](O)[C@H](C)C(=O)N1CCC[C@H]1C(=O)N[C@@H](C[C@H](C)C[C@H](O)CC(=O)CC)C(=O)N[C@@H](C)C(=O)NC(C)(C)C(=O)NC(C)(C)C(=O)N[C@H](C(=O)N[C@@H](C)C(=O)NC(C)(C)C(=O)NC(C)(C)C(=O)N[C@@H](C)CN(C)CCO)[C@@H](C)CC (X2-P[X1]A[Aib][Aib]IA[Aib][Aib]-{Alaψ(CH2NMeCH2CH2OH)})	294
> 1000	CCCCCCCC[C@@H](C)C(=O)N1CCC[C@H]1C(=O)N[C@@H](C[C@H](C)C[C@H](O)CC(=O)CC)C(=O)N[C@@H](C)C(=O)NC(C)(C)C(=O)NC(C)(C)C(=O)N[C@H](C(=O)N[C@@H](C)C(=O)NC(C)(C)C(=O)NC(C)C(=O)N[C@@H](C)CN(C)CCO)C(C)C (stereo partly drawn) ({Decanoyl(2R-Me)}-P[X1]A[Aib][Aib]VA[Aib][ξA]-{Alaψ(CH2NMeCH2CH2OH)})	60.4
> 1000	CCCCCCCC[C@@H](C)C(=O)N1CCC[C@H]1C(=O)N[C@@H](C[C@H](C)C[C@H](O)CC(=O)CC)C(=O)N[C@@H](C)C(=O)NC(C)(C)C(=O)NC(C)(C)C(=O)N[C@H](C(=O)N[C@@H](C)C(=O)NC(C)(C)C(=O)NC(C)(C)C(=O)N[C@@H](C)CN(C)CCO)[C@@H](C)CC ({Decanoyl(2R-Me)}-P[X1]A[Aib][Aib]IA[Aib][Aib]-{Alaψ(CH2NMeCH2CH2OH)})	5.2

Compound	IC50 (Mus musculus [2]) [nM]	IC50 (Mus musculus [1]) [nM]
CCCCCCCC[C@@H](C)C(=O)N1CCC[C@H]1C(=O)N[C@@H](C[C@H](C)C[C@H](O)CC(=O)CC)C(=O)N[C@@H](C)C(=O)NC(C)(C)C(=O)NC(C)(C)C(=O)N[C@H](C(=O)N[C@@H](C)C(=O)NC(C)(C)C(=O)NC(C)(C)C(=O)N[C@@H](C)CN(C)CCO)C(C)C ({Decanoyl(2R-Me)}-P[X1]A[Aib][Aib]VA[Aib][Aib]-{Alaψ(CH2NMeCH2CH2OH)})	> 1000	10.7
